The results in this text go back to ChEMBL document CHEMBL3045457, “Synthesis and insecticidal activity of N-substituted (1,3-thiazole)alkyl sulfoximine derivatives” (2008).

This test relates to Myzus persicae. In words: Insecticidal activity against Myzus persicae (green peach aphid) in horsebean shoot assessed as mortality at 10 mg/l at 25 +/-1 degC treated for 2 secs measured after 16 hr. It counts as functional.

In the case of `CS(=O)(Cc1ccc(Cl)nc1)=NC#N` (configuration not stated), the mortality – broadly, the percentage killed – at 10 µg/mL is 100%.
Regarding `CS(=O)(Cc1cnc(Br)s1)=NC#N` (configuration not stated), the mortality at 10 µg/mL amounted to 93%.
The value for `CCOc1nc(C(F)(F)F)c(CS(C)(=O)=NC#N)s1` (configuration not stated) was 68%; that for `Cc1nc(Cl)sc1CS(C)(=O)=NC#N` (configuration not stated) was 0%.
As for `CS(=O)(Cc1cnc(Cl)s1)=NC#N` (configuration not stated), the mortality at 10 µg/mL came to 75%.
Regarding `CS(=O)(Cc1sc(Cl)nc1C(F)(F)F)=NC#N` (configuration not stated), the mortality at 10 µg/mL is 100%.
As for `CS(=O)(Cc1sc(Br)nc1C(F)(F)F)=NC#N` (configuration not stated), the mortality at 10 µg/mL stood at 48%.
